Experimental data: patent publication US11066629B2, “Lipid metabolism-promoting composition including isoxanthohumol” (SUNTORY HOLDINGS LIMITED, priority 2016, dated 2021)

Experiments:
[1] = tested on: apoptosis inhibitor of macrophage (AIM); conditions: mouse macrophage-derived cells (J774.1) cultured with isoxanthohumol; cited from earlier work
[2] = Solubility in water under ice cooling conditions (Experiment A); assay type: physicochemical; conditions: distilled water, ppm on w/v basis
Text: (§1) The solubility of each of the standard samples of xanthohumol and isoxanthohumol in water (Experiment A) and various solvents (Experiment B) under ice cooling conditions was studied to evaluate the suitability for beverage applications. Xanthohumol and isoxanthohumol were the standard samples obtained in Preparation Example 1 (purity of 95% or higher).
A sample containing distilled water and xanthohumol or isoxanthohumol having a weight corresponding to 0.2% (w/v) of the distilled water was prepared, and each standard sample was allowed to dissolve in distilled water as much as possible by stirring in a vortex mixer for 10 seconds or longer and shaking for about 60 minutes under ice cooling conditions. Further, centrifugation was performed (12,000 rpm, 4° C., for 5 minutes), and the supernatant was collected. This procedure was repeated three times. The finally obtained supernatant was used as a xanthohumol saturated aqueous solution or an isoxanthohumol saturated aqueous solution. The saturated aqueous solution was 100-fold diluted with a 25% aqueous ethanol solution to obtain a sample for analysis. The sample was subjected to quantitative analysis using an LC-MS/MS system (TSQ Quantiva, Thermo Fisher Scientific Inc.) to evaluate the solubility in water. […] Note that ppm is ppm on w/v basis unless otherwise specified. […]

[3] = heating; isoxanthohumol at 100° C.; cited from earlier work
[4] = Solubility of isoxanthohumol in various solvents under ice cooling conditions (Experiment B); assay type: physicochemical; conditions: for solubility relative to aqueous solution without γ-cyclodextrin: ice cooling
Text: as §1
Distilled water, a hop extract, and 0.2% (w/v) or 1.0% (w/v) aqueous solution of β-cyclodextrin or γ-cyclodextrin (both Nacalai Tesque, Inc.) were prepared as solvents to study the solubility of isoxanthohumol under ice cooling conditions. As for the hop extract, hops (Saaz) that had been crushed into pellets were extracted with distilled water in an amount 10 times the weight of the pellets by shaking at room temperature for about 60 minutes, and the filtrate obtained by suction filtration was used for the test. The isoxanthohumol concentration in the hop extract was less than 0.5 ppm. A sample containing a solvent and isoxanthohumol having a weight corresponding to 0.2% (w/v) of the solvent was prepared for each of the above solvents, and the standard sample was allowed to dissolve in water as much as possible by stirring in a vortex mixer for 10 seconds or longer and shaking for about 60 minutes under ice cooling conditions. Centrifugation and quantitative analysis were performed as in Experiment A to evaluate the solubility of isoxanthohumol in each solvent.

high-fat diet model [5] = test: Anti-obesity action in high-fat diet model (body weight, fat weight); assay type: in vivo, Mice (C57BL/6J)
Text: The effect of isoxanthohumol on body weight increase and fat accumulation associated with high-fat diet was studied by the following procedure. In the table, “Regular diet” is control diet “D12450J” (product name, Research Diets); “60 kcal % High-fat diet” is very high-fat diet “D12492” (product name, Research Diets); and “Catechins” is a preparation “Polyphenon 70A” (product name, Mitsui Norin Co., Ltd.). Xanthohumol and isoxanthohumol were the standard samples (purity of 95% or higher) obtained in Preparation Example 1. The “Dose” in the table indicates the dose (mg) of the test substance per day per kg body weight. The main evaluation items were the body weight and the fat weight (fat around epididymis, fat around kidney/posterior abdominal wall, and fat around mesentery) of each individual (each item was measured on the last day: day 55 of administration). Mice (C57BL/6J, male, 7 weeks of age, CLEA Japan, Inc.) were purchased, and they were quarantine and acclimatized for one week. […] The selected animals were divided into groups (n=8 in each group) in the group structure shown in Table 1 by the stratified continuous randomization method based on body weight at the end of the acclimatization period. They were fed with free access to specific basic feed and water. The test substance was orally administered once per day for eight weeks. The test substance was administered until day 55, with the dosing start date defined as day 0. The duration was regarded as an administration period. During the administration period, the feed was completely replaced with a frequency of twice a week. The volume of a dosing solution was 10 mL/kg, and the amount of the test substance and the volume of the solution were calculated based on the latest body weight on the administration date. After the administration period, adipose tissue (fat around epididymis, fat around kidney/posterior abdominal wall, fat around mesentery) was extracted, and the weight was measured. Statistical analysis was performed as follows. Specifically, the average and standard error were calculated for body weight and fat weight in each group. Statistical processing was performed using Microsoft Office Excel 2003, and significant difference was tested between the regular diet group and the high-fat diet group and between the high-fat diet group and the groups excluding the regular diet group. As a statistical method, the homogeneity of variance was tested using the F-test. Student's T-test was used for homoscedasticity, and Aspin-Welch t-test was used for heteroscedasticity.

[6] = tested on: mouse preadipocyte (3T3-L1); conditions: 3T3-L1, concentration without cytotoxicity; cited from earlier work
Pgc-1α gene = test: Gene expression in brown adipose tissue by quantitative PCR, high-fat diet model; assay type: in vivo, mice (C57BL/6J); conditions: isoxanthohumol 30 or 60 mg/kg/day oral, 14 days
Text: (§2) Using the high-fat diet model, the effect of isoxanthohumol intake on expression of a gene related to fat burning was studied by the following procedure.
(§3) Thirty-two mice (C57BL/6J, male, 8 weeks of age, CLEA Japan, Inc.) were purchased and acclimatized for about one week. Then, the mice were divided into groups (n=8 in each group) in the group structure shown in Table 2 by the stratified continuous randomization method based on body weight. […] In Table 2, “Regular diet” is control diet “D12450J” (Research Diets), and “60 kcal % High-fat diet” is very high-fat diet “D12492” (Research Diets). Isoxanthohumol as the test substance was the standard sample (purity of 95% or higher) obtained in Preparation Example 1. […]
(§4) The test period was 14 days. […] The amount of the test substance and the volume of the solution were calculated based on the latest body weight on the administration date. […]
(§5) Using the extracted liver and brown adipose tissue, the effect of isoxanthohumol intake on expression of multiple genes related to lipid metabolism was studied. […] Then, cDNAs were synthesized using High-Capacity cDNA Reverse Transcription Kit (product name, Life Technologies Corporation), and the expression levels of genes shown in Table 3 were examined by quantitative PCR (TaqMan probe method) using Fast Universal PCR Master Mix (product name, Life Technologies Corporation). […]

Ucp1 gene = test: as above; assay type: in vivo, mice (C57BL/6J); conditions: isoxanthohumol 30 or 60 mg/kg/day oral, 14 days
Text: as §2, §3, §4, §5

high-fat diet model [7] = test: Measurement of triglyceride (TG) content in liver; assay type: in vivo, Mice (C57BL/6J); conditions: livers of Example 1
Method: The neutral fat content (also referred to as “triglyceride content” or “TG content”) in the liver was measured using the liver extracted in Example 1. Specifically, the extracted liver was cut to obtain a section of about 30 mg, and 1 mL of a mixed solution containing methanol (Nacalai Tesque, Inc.) and chloroform (Nacalai Tesque, Inc.) at a ratio of 1:1 was added to the section which was then crushed with a bead beater, whereby triglyceride in the liver was extracted. After centrifugation (12000 g, for 15 minutes), the supernatant was collected, the solution was distilled off, and isopropanol was added for re-dissolution, whereby a sample was prepared. The triglyceride content in the sample was measured using Triglyceride E Test Wako (Wako), and the triglyceride content (mg/g) in the liver per unit weight was calculated. The data was presented as average f standard error. Student's t-test was used as a statistical test, and a difference with p<0.05 was considered significant.

[8] = Effect of intake on fat burning, respiratory quotient (Oxymax respirometer); assay type: in vivo, mice (C57BL/6J); conditions: isoxanthohumol 0.2% in feed, 7 days, vs control group
Text: The effect of isoxanthohumol intake on fat burning was studied by the following procedure using a respirometer “Oxymax” (Bio Research Center Co., Ltd.).
As for the group structure, there were two groups: a control group and an isoxanthohumol 0.2% group. Eight mice (C57BL/6J, male, 14 weeks of age, CLFA Japan, Inc.) were purchased and acclimatized for about one week. Then, the mice were divided into the control group and the isoxanthohumol 0.2% group (n=4 in each group) by the stratified continuous randomization method based on body weight. Control diet “D12450J” (Research Diets) was used as basic feed. During the test period, the control group was fed with the basic feed, and the isoxanthohumol 0.2% group was fed with mixed feed of the basic feed and the test substance (isoxanthohumol obtained in Preparation Example 1) at a weight ratio of 0.2% relative to the basic feed.
The test period (a period in which the test substance was ingested, and breath analysis was performed) was seven days. […] Using Oxymax (Bio Research Center Co., Ltd.), the oxygen consumption (VO2) and the carbon dioxide output (VCO2) of each individual were measured over time and recorded.
The respiratory quotient (RQ) was calculated using the following formula 1 from the oxygen consumption (VO2) and the carbon dioxide output (VCO2) at each point. […]

Acox1 gene = test: Gene expression in liver by quantitative PCR, high-fat diet model; assay type: in vivo, mice (C57BL/6J); conditions: isoxanthohumol 30 or 60 mg/kg/day oral, 14 days
Text: as §2, §3, §4, §5

Cpt1a gene = test: as above; assay type: in vivo, mice (C57BL/6J); conditions: isoxanthohumol 30 or 60 mg/kg/day oral, 14 days
Text: as §2, §3, §4, §5

[9] = tested on: high-fat diet mouse model; conditions: repeated dose 30 mg/kg/day; cited from earlier work
[10] = tested on: type II diabetes mouse model; conditions: feed containing xanthohumol at 1%; cited from earlier work
[11] = 60 mg/kg/day oral, day 55, compared to high-fat diet group
[12] = 180 mg/kg/day oral, day 55, compared to high-fat diet group

## COc1cc(O)c(CC=C(C)C)c2c1C(=O)CC(c1ccc(O)cc1)O2 (stereo not drawn) [isoxanthohumol]
[1]
  expression of lipolysis-promoting factor AIM: enhanced expression
[2]
  Solubility in water (ice cooling conditions): 6.3 ppm
[3]
  thermal stability: stable even at a high temperature of 100 °C
[4]; 0.2% (w/v) γ-cyclodextrin
  solubility relative to aqueous solution without γ-cyclodextrin: about 5 times
[4]; 1.0% (w/v) γ-cyclodextrin
  solubility relative to aqueous solution without γ-cyclodextrin: about 18 times
[4]; solvent: 0.2% β-Cyclodextrin
  Solubility (ice cooling conditions): 18.4 ppm
[4]; solvent: 0.2% γ-Cyclodextrin
  Solubility (ice cooling conditions): 33.6 ppm
[4]; solvent: 1.0% β-Cyclodextrin
  Solubility (ice cooling conditions): 52.0 ppm
[4]; solvent: 1.0% γ-Cyclodextrin
  Solubility (ice cooling conditions): 115.5 ppm
[4]; solvent: Distilled water
  Solubility (ice cooling conditions): 6.3 ppm
[4]; solvent: Hop extract
  Solubility (ice cooling conditions): 13.7 ppm
high-fat diet model [5]; [11]
  fat weight around epididymis: significantly low
  fat weight around mesentery: significantly low
high-fat diet model [5]; [12]
  fat weight around epididymis: significantly low
  fat weight around kidney/posterior abdominal wall: significantly low
  fat weight around mesentery: significantly low
high-fat diet model [5]; isoxanthohumol 60 mg/kg vs xanthohumol 60 mg/kg, day 55
  average body weight compared with xanthohumol medium-dose group: equivalent to that of the xanthohumol medium-dose group
high-fat diet model [5]; isoxanthohumol 180 mg/kg vs catechins 300 mg/kg, day 55
  average body weight compared with catechins group: better result
high-fat diet model [5]; isoxanthohumol high-dose 180 mg/kg/day oral, day 55, compared to high-fat diet group
  body weight: significantly low
high-fat diet model [5]; isoxanthohumol medium-dose 60 mg/kg/day oral, day 55, compared to high-fat diet group
  body weight: tended to have a low body weight
[6]
  differentiation of the cells into adipocytes: did not suppress differentiation
Pgc-1α gene
  Pgc-1α gene expression in the brown adipose tissue: significant increase
Ucp1 gene
  expression level of Ucp1 gene in brown adipose tissue: increase in expression level
high-fat diet model [7]; isoxanthohumol-administered group vs high-fat diet group
  neutral fat (triglyceride) content in the liver: significantly lower
high-fat diet model [7]
  action on neutral fat content in the liver compared with xanthohumol: stronger than that of xanthohumol
[8]
  respiratory quotient (RQ): lower
Acox1 gene
  gene expression level of Acox1 gene in the liver: significant increase
Cpt1a gene
  gene expression level of Cpt1a gene in the liver: significant increase

## COc1cc(O)c(CC=C(C)C)c(O)c1C(=O)/C=C/c1ccc(O)cc1 [xanthohumol]
[9]
  body weight increase: suppression of body weight increase
[2]
  Solubility in water (ice cooling conditions): Less than 0.5 ppm
[3]
  thermal stability: thermally unstable
[10]
  body weight gain: tendency of suppression of body weight gain
  weight of fat around kidney or the like: decrease
